Measurements published in the supplement of paper PMC10307832.

What was measured:
Assay in all cases: relative viability (nuclei count vs DMSO), 5 days (fraction); higher = more cells survive
GSK126 + Linsitinib = compound: CC[C@H](C)N1C=C(C2=C(C=C(C=C21)C3=CN=C(C=C3)N4CCNCC4)C(=O)NCC5=C(C=C(NC5=O)C)C)C [GSK126] + C[C@]1(O)C[C@@H](c2nc(-c3ccc4ccc(-c5ccccc5)nc4c3)c3c(N)nccn32)C1 [Linsitinib] (partner 1 µM)
Summary of the method: (§1)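 Dosing by pin tool came one day after lung cancer cell lines were seeded in 1536-well plates, using either one drug or a fixed anchor-drug dose plus five library-drug doses (not always all listed) in √10 steps. After 5 days, nuclei were counted on 4× images. Relative viability is treated-well nuclei count divided by vehicle-well nuclei count, and values are medians of duplicate plates.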

MLN4924 + Linsitinib = compound: NS(=O)(=O)OC[C@@H]1C[C@@H](n2ccc3c(N[C@H]4CCc5ccccc54)ncnc32)C[C@@H]1O [MLN4924] + C[C@]1(O)C[C@@H](c2nc(-c3ccc4ccc(-c5ccccc5)nc4c3)c3c(N)nccn32)C1 [Linsitinib] (partner 1 µM)
Summary of the method: as §1

GSK126 + Palbociclib = compound: CC[C@H](C)N1C=C(C2=C(C=C(C=C21)C3=CN=C(C=C3)N4CCNCC4)C(=O)NCC5=C(C=C(NC5=O)C)C)C [GSK126] + CC(=O)c1c(C)c2cnc(Nc3ccc(N4CCNCC4)cn3)nc2n(C2CCCC2)c1=O [Palbociclib] (partner 0.5 µM)
Summary of the method: as §1

GSK126 + Vorinostat = compound: CC[C@H](C)N1C=C(C2=C(C=C(C=C21)C3=CN=C(C=C3)N4CCNCC4)C(=O)NCC5=C(C=C(NC5=O)C)C)C [GSK126] + O=C(CCCCCCC(=O)Nc1ccccc1)NO [Vorinostat] (partner 1 µM)
Summary of the method: as §1

Cell Line	relative viability (GSK126 + Linsitinib; first compound 0.08 µM)	relative viability (GSK126 + Linsitinib; first compound 0.253 µM)	relative viability (GSK126 + Linsitinib; first compound 0.8 µM)	relative viability (GSK126 + Linsitinib; first compound 2.53 µM)	relative viability (GSK126 + Linsitinib; first compound 8 µM)	relative viability (MLN4924 + Linsitinib; first compound 0.04 µM)	relative viability (MLN4924 + Linsitinib; first compound 0.1265 µM)	relative viability (MLN4924 + Linsitinib; first compound 0.4 µM)	relative viability (MLN4924 + Linsitinib; first compound 1.265 µM)	relative viability (MLN4924 + Linsitinib; first compound 4 µM)	relative viability (GSK126 + Palbociclib; first compound 0.08 µM)	relative viability (GSK126 + Palbociclib; first compound 0.253 µM)	relative viability (GSK126 + Palbociclib; first compound 0.8 µM)	relative viability (GSK126 + Palbociclib; first compound 2.53 µM)	relative viability (GSK126 + Palbociclib; first compound 8 µM)	relative viability (GSK126 + Vorinostat; first compound 0.08 µM)	relative viability (GSK126 + Vorinostat; first compound 0.253 µM)	relative viability (GSK126 + Vorinostat; first compound 0.8 µM)	relative viability (GSK126 + Vorinostat; first compound 2.53 µM)	relative viability (GSK126 + Vorinostat; first compound 8 µM)
ABC-1	0.83	1.03	0.67	0.703	0.755	0.875	0.795	0.618	0.238	0.218	0.768	0.735	0.675	0.98	0.675	1.19	1.08	1.05	1.11	1.01
LC-2-ad	0.874	0.905	0.849	0.899	0.839	0.854	0.533	0.281	0.162	0.13	0.497	0.489	0.479	0.481	0.478	0.767	0.667	0.704	0.712	0.63
NCI-H460	0.76	0.784	0.787	0.798	0.969	0.838	0.733	0.113	0.0176	0.0132	0.171	0.199	0.154	0.148	0.173	0.89	0.718	0.75	0.699	0.656
NCI-H1915	1.2	1.08	1.14	1.17	1.16	1.05	0.82	0.898	0.213	0.222	0.554	0.496	0.516	0.56	0.583	0.602	0.474	0.542	0.5	0.54
NCI-H1299	0.986	0.998	1	0.93	0.964	0.903	0.768	0.441	0.189	0.186	–	–	–	–	–	–	–	–	–	–
HOP-62	1.05	0.979	0.856	0.926	0.899	0.433	0.272	0.151	0.0627	0.0635	0.501	0.372	0.468	0.398	0.444	0.725	0.542	0.633	0.646	0.665
EPLC-272H	1.4	1.16	1.06	1.17	1.23	1.14	1.13	0.147	0.183	0.216	0.344	0.324	0.33	0.374	0.301	0.346	0.342	0.344	0.29	0.511
NCI-H647	1.47	1.28	1.17	1.07	1.08	0.709	0.499	0.137	0.0815	0.0619	0.482	0.366	0.363	0.382	0.5	0.724	0.61	0.614	0.592	0.687
NCI-H1792	0.561	0.639	0.51	0.571	0.498	0.548	0.664	0.804	0.184	0.124	0.642	0.627	0.659	0.661	0.629	–	–	–	–	–
NCI-H1563	1.2	1.11	1.16	1.12	1.26	1.73	1.18	0.753	0.606	0.6	–	–	–	–	–	–	–	–	–	–
NCI-H2170	–	–	–	–	–	–	–	–	–	–	0.433	0.388	0.385	0.397	0.394	0.914	1.01	0.748	0.799	0.772
NCI-H1650	–	–	–	–	–	–	–	–	–	–	0.393	0.359	0.37	0.377	0.32	0.678	0.546	0.605	0.431	0.681
NCI-H1648	–	–	–	–	–	–	–	–	–	–	0.291	0.357	0.275	0.288	0.293	0.496	0.401	0.467	0.5	0.548
IA-LM	0.685	0.729	0.737	0.365	0.614	0.252	0.197	0.155	0.0583	0.0889	–	–	–	–	–	1.06	0.797	0.941	0.929	0.853
ChaGo-K-1	–	–	–	–	–	–	–	–	–	–	0.93	0.905	0.914	1.04	0.914	0.767	0.736	0.747	0.825	0.763
NCI-H596	1.02	0.99	1.03	1.16	1.15	1.2	1.3	0.744	0.853	0.304	–	–	–	–	–	0.613	0.55	0.746	0.577	0.502
Calu-6	1.14	0.97	–	0.989	1.07	0.946	0.708	0.317	0.101	0.109	–	–	–	–	–	–	–	–	–	–
NCI-H1703	1.25	0.708	0.852	0.82	1.5	0.235	0.241	0.157	0.111	0.146	–	–	–	–	–	–	–	–	–	–
EBC-1	1.07	1.02	1	0.74	0.909	0.812	0.628	0.182	0.102	0.13	–	–	–	–	–	–	–	–	–	–
SW 900	–	–	–	–	–	–	–	–	–	–	0.659	0.514	0.518	0.61	0.585	0.421	0.546	0.432	0.39	0.566
NCI-H522	–	–	–	–	–	–	–	–	–	–	1.09	0.772	0.991	1.06	1.07	0.888	0.887	0.954	1.04	0.92
A549	0.687	0.524	0.541	0.594	0.58	0.635	0.626	0.496	0.0571	0.047	–	–	–	–	–	–	–	–	–	–
